Experiments:
ERK5 [1] = target: T1, ERK5 (Homo sapiens, UniProt Q13164); assay: ERK5 autophosphorylation assay (EGF-stimulated, mobility shift immunoblot); format: cell-based; parameters: endogenous in cells; host or cells: HeLa; settings: inhibition of EGF-stimulated autophosphorylation of ERK5 in HeLa cells; read-out: Cellular EC50 (ERK5)
Text: Proteins from total cell lysates were resolved by 6% sodium dodecyl sulfate (SDS)-poly-acrylamide gel electrophoresis (PAGE), transferred to nitrocellulose membrane, blocked in 5% nonfat milk, and blotted with anti-ERK5 antibody.

ERK5 [2] = target: T1, ERK5; assay: ERK5 kinase activity in vitro assay (32P-ATP, PIMtide substrate); format: biochemical; parameters: hexahistidine (His6) (N); made in house; host or cells: Spodoptera frugiperda 21 cells (baculovirus, Bac-to-Bac); settings: for IC50: in vitro assay, recombinant active ERK5, read-out: Enzymatic IC50 (ERK5)
Description: pFastBAC vector encoding N-terminal hexahistidine-tagged human ERK5 and HA-tagged human MEK5-DD (constitutively active) were used to generate recombinant baculovirus using the Bac-to-Bac system (Invitrogen). […] His-tagged ERK5 was purified as described for His-tagged BRSK1[33], using 5 mL Ni-NTA-agarose resin (Qiagen) followed by gel filtration chromatography on Superdex 200HR column on an AKTA system (GE Healthcare).
Assays were carried out for 20 min at 30 °C, terminated by applying the reaction mixture onto p81 paper and the incorporated radioactivity measured as described previously.

T1 sequence (Q13164 whole entry): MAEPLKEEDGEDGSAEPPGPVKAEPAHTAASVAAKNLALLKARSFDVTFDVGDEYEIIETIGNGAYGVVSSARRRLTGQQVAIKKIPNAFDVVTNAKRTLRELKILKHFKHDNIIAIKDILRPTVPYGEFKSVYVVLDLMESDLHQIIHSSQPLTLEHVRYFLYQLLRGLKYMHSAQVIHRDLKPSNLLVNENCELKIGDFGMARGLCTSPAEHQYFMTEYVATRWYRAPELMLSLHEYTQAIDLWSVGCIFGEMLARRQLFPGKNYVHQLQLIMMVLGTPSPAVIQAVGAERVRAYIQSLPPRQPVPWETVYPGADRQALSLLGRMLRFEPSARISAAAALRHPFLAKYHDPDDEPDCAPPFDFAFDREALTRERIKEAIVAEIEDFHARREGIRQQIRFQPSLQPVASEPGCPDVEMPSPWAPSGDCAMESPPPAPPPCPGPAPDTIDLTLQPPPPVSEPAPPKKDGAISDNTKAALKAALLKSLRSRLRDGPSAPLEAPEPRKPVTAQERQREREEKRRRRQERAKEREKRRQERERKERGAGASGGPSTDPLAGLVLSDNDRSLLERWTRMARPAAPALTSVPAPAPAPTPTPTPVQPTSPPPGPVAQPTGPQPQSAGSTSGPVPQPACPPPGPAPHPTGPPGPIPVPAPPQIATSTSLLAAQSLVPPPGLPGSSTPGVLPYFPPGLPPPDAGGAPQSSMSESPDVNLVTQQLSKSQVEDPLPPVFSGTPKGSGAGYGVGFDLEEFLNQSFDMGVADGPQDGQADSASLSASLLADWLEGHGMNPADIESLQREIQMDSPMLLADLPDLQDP

EC50 (ERK5 [1]) [nM] | IC50 (ERK5 [2]) [nM] | fold decrease in activity for ERK5 (ERK5 [2]; relative to compound 5) [fold] | Structure (SMILES)
4680 ± 520 | 1720 ± 221 |  | CN1C(=O)c2ccccc2N(C)c2nc(NCCc3cnc[nH]3)ncc21 [Compound 9]
3100 ± 620 | 2460 ± 260 |  | COc1cc(N2CCN(C)CC2)ccc1Nc1ncc2c(n1)N(C)c1cc(C)ccc1C(=O)N2C [Compound 23]
240 ± 30 | 140 ± 9 |  | COc1cc(NCCN(C)C)ccc1Nc1ncc2c(n1)N(C)c1ccccc1C(=O)N2C [Compound 13]
240 ± 40 | 297 ± 14 |  | COc1cc(N2CCC(O)CC2)ccc1Nc1ncc2c(n1)N(C)c1ccccc1C(=O)N2C [Compound 6]
260 ± 30 | 233 ± 19 |  | COc1cc(N2CCOCC2)ccc1Nc1ncc2c(n1)N(C)c1ccccc1C(=O)N2C [Compound 7]
320 ± 50 | 338 ± 18 |  | COc1cc(C(=O)NC2CCN(C)CC2)ccc1Nc1ncc2c(n1)N(C)c1ccccc1C(=O)N2C [Compound 14]
4110 ± 590 | 1250 ± 151 |  | CN1CCC(Nc2ncc3c(n2)N(C)c2ccccc2C(=O)N3C)CC1 [Compound 10]
> 1000 | 1450 ± 210 | 4 | COc1cc(N2CCN(C)CC2)ccc1Nc1ncc2c(n1)N(C)c1ccccc1C(=O)N2 [Compound 16]
310 ± 60 | 171 ± 16 |  | CN1C(=O)c2ccccc2N(C)c2nc(Nc3ccc(S(N)(=O)=O)cc3)ncc21 [Compound 8]
11400 ± 2040 | 5090 ± 52 |  | COc1cc(N2CCN(C)CC2)ccc1Nc1ncc2c(n1)N(C)c1ccc(Cl)cc1C(=O)N2C [Compound 22]
1320 ± 220 | 873 ± 60 |  | COc1cc(N2CCN(C)CC2)ccc1Nc1ncc2c(n1)N(C)c1ccc(F)cc1C(=O)N2C [Compound 20]

Structure (SMILES) | EC50 (ERK5 [1]) [nM] | IC50 (ERK5 [2]) [nM] | fold decrease in activity for ERK5 (ERK5 [2]; relative to compound 5) [fold]
COc1cc(N2CCN(C)CC2)ccc1Nc1ncc2c(n1)N(C)c1cc(Cl)ccc1C(=O)N2C [Compound 21] | 1240 ± 240 | 1130 ± 160 | 
CC(C)Oc1cc(N2CCC(O)CC2)ccc1Nc1ncc2c(n1)N(C)c1ccccc1C(=O)N2C [Compound 12] | > 500 | 1530 ± 172 | 
COc1cc(N2CCN(C)CC2)ccc1Nc1ncc2c(n1)N(C1CCCC1)c1ccccc1C(=O)N2C [Compound 19] | 200 ± 40 | 146 ± 18 | 
CCN1c2ccccc2C(=O)N(C)c2cnc(Nc3ccc(N4CCN(C)CC4)cc3OC)nc21 [Compound 17] | 200 ± 40 | 66 ± 7 | 
COc1cc(N2CCN(C)CC2)ccc1Nc1ncc2c(n1)N(C(C)C)c1ccccc1C(=O)N2C [Compound 18] | 230 ± 30 | 98 ± 12 | 

— paper PMC3914206
